Assay results reported in patent publication US20250100963A1, “SULFONATED AND PHOSPHORYLATED AROMATIC MOLECULES” (Xavier University of Louisiana, priority 2023, published 2025).
Like-named read-outs stand apart in the source and are kept apart here.

Columns and labels:
[1] = molecular target: T1, CatG (Homo sapiens, UniProt P08311); conditions: reported; read-out: estimated Ki, allosteric inhibitor; cited from earlier work
T1 sequence (P08311 21-244): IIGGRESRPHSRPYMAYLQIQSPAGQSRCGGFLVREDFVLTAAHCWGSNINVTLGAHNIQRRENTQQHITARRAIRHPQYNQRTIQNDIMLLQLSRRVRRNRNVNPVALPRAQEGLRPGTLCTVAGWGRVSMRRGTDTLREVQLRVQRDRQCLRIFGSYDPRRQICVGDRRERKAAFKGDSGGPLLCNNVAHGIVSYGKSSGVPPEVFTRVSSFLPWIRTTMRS

[2] = molecular target: T1, CatG; test: Direct inhibition of human CatG, chromogenic substrate hydrolysis assay; format: biochemical
Description: The method further comprises inhibition of proteases. […] To each well of a 96-well microplate containing 88 μl of 20 mM tris buffer containing 100 mM NaCl, 2.5 mM CaCl2, 0.1% PEG 8000 and 0.05% tween 80 was added 3 μl of CatG (final concentration of 30 nM), and 5 μl of H2O or potential inhibitor (final concentration of 0-100 μM). Following a 5-min incubation, 3 μl of CatG substrate was added (final concentration 750 μM) and the residual CatG activity was obtained from the initial rate of increase of absorbance at 405 nm. The relative residual activity of CatG at each of the inhibitor concentrations was obtained from the ratio of CatG activity in the presence and absence of the inhibitor. Logistic Equation (1) was used to plot the dose-dependence curve to obtain the IC50 (potency) and efficacy of CatG inhibition. Here, Y is the ratio of residual CatG activity in the presence of inhibitor to that in its absence, YO and YM are the minimum and maximum values of fractional residual CatG activity, respectively, IC50 is the concentration of the inhibitor that results in 50% inhibition of CatG activity and HS is the Hill slope.
To each well of a 96-well microplate containing 88 μl of 20 mM tris buffer containing 100 mM NaCl, 2.5 mM CaCl2, 0.1% PEG 8000 and 0.05% tween 80 was added 3 μl of CatG (final concentration of 30 nM), and 5 μl of H2O or potential inhibitor (final concentration of 0-100 μM). Following a 5-min incubation, 3 μl of CatG substrate was added (final concentration 750 μM) and the residual CatG activity was obtained from the initial rate of increase of absorbance at 405 nm. The relative residual activity of CatG at each of the inhibitor concentrations was obtained from the ratio of CatG activity in the presence and absence of the inhibitor. Logistic Equation (1) was used to plot the dose-dependence curve to obtain the IC50 (potency) and efficacy of CatG inhibition. Here, Y is the ratio of residual CatG activity in the presence of inhibitor to that in its absence, YO and YM are the minimum and maximum values of fractional residual CatG activity, respectively, IC50 is the concentration of the inhibitor that results in 50% inhibition of CatG activity and HS is the Hill slope.

[3] = molecular target: Thrombin (human FIIa) (Homo sapiens, UniProt P00734); test: Direct inhibition of thrombin, chromogenic substrate hydrolysis assay; format: biochemical; conditions: Tris-HCl buffer; estimated from the highest concentration used
Description: (§1) Direct inhibitions of thrombin (FIIa), factor VIIa (FVIIa), factor IXa (FIXa), factor Xa (FXa), FXIa, factor XIIa (FXIIa), trypsin and chymotrypsin were evaluated using the corresponding chromogenic substrate hydrolysis assays as previously reported. Briefly, to each well of a 96-well microplate containing 85-185 μl of […] Tris buffer containing 100 mM NaCl, 2.5 mM CaCl2, 0.1% PEG 8000, and 0.05% tween 80 at 25 (thrombin) or 37° C. (FVIIa, FIXa, FXa, FXIa, FXIIa, chymotrypsin, and trypsin) were added 5 μl of enzyme (thrombin, FVIIa, FIXa, FXa, FXIa, FXIIa, chymotrypsin, and trypsin) and 5 μl of the inhibitor. Following an incubation period of 5 min, the appropriate chromogenic substrates (Spectrozyme TH, Spectrozyme FIXa, Spectrozyme FXa, S-2366, Spectrozyme FXIIa and S-2222) were added and the residual enzyme activity was measured from the initial rate of increase in absorbance at 405 nm. Relative residual enzyme activity as a function of the inhibitor concentration was fitted using Logistic Equation (1) to obtain the IC50 (potency), A Y % (efficacy) of enzyme inhibition, and HS (Hill slope). […]

[4] = molecular target: T2, FXa (Homo sapiens, UniProt P00742); test: Direct inhibition of FXa, chromogenic substrate hydrolysis assay; format: biochemical; conditions: Tris-HCl buffer
T2 construct: factor Xa (FXa), FXIa, factor XIIa (FXIIa), trypsin and chymotrypsin
T2 sequence (P00742 235-488): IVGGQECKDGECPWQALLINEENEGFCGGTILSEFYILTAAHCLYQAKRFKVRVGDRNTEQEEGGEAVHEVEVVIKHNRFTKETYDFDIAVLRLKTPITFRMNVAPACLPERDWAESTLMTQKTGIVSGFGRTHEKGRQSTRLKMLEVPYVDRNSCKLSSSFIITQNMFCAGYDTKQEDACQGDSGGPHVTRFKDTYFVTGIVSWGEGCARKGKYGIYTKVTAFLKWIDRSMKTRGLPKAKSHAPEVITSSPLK
T2 sequence (P00742 41-179 partner): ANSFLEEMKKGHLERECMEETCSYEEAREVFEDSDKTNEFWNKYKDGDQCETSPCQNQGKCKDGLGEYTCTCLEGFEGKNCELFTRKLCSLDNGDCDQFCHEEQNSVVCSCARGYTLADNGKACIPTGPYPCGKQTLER
Description: as §1

[5] = molecular target: Human FXIa (Homo sapiens, UniProt P03951); test: Direct inhibition of FXIa, chromogenic substrate hydrolysis assay; format: biochemical; conditions: Tris-HCl buffer
Sequence of Human FXIa (P03951 388-625): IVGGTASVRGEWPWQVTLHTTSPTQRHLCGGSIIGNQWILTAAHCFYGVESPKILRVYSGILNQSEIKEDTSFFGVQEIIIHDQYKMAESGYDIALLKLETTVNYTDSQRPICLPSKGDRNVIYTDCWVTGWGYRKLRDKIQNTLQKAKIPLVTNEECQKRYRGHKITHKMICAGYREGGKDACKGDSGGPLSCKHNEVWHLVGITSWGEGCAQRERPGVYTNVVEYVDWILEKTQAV
Sequence of Human FXIa (P03951 19-387 partner): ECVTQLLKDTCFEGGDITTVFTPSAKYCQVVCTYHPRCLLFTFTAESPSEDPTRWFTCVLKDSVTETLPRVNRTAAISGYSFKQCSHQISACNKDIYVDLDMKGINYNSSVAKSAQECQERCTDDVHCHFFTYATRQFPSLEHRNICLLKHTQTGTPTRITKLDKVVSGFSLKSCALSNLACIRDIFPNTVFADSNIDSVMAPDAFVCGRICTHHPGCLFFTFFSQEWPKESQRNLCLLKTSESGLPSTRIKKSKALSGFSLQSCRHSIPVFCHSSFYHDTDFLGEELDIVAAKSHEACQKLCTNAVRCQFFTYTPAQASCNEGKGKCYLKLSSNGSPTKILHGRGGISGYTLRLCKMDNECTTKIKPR
Description: Direct inhibitions of thrombin (FIIa), factor VIIa (FVIIa), factor IXa (FIXa), factor Xa (FXa), FXIa, factor XIIa (FXIIa), trypsin and chymotrypsin were evaluated using the corresponding chromogenic substrate hydrolysis assays as previously reported. Briefly, to each well of a 96-well microplate containing 85-185 μl of […] Tris buffer containing 100 mM NaCl, 2.5 mM CaCl2, 0.1% PEG 8000, and 0.05% tween 80 at 25 (thrombin) or 37° C. (FVIIa, FIXa, FXa, FXIa, FXIIa, chymotrypsin, and trypsin) were added 5 μl of enzyme (thrombin, FVIIa, FIXa, FXa, FXIa, FXIIa, chymotrypsin, and trypsin) and 5 μl of the inhibitor. Following an incubation period of 5 min, the appropriate chromogenic substrates (Spectrozyme TH, Spectrozyme FIXa, Spectrozyme FXa, S-2366, Spectrozyme FXIIa and S-2222) were added and the residual enzyme activity was measured from the initial rate of increase in absorbance at 405 nm. Relative residual enzyme activity as a function of the inhibitor concentration was fitted using Logistic Equation (1) to obtain the IC50 (potency), A Y % (efficacy) of enzyme inhibition, and HS (Hill slope). The concentrations of enzymes and substrates in microplate cells were: 6 nM and 50 μM for thrombin; 1.09 nM and 125 μM for FXa; 5 nM and 125 μM for FXIIa; 89 nM and 850 μM for FIXa; 8 nM and 1000 µM for FVIIa (along with 40 nM recombinant tissue factor); 72.5 ng/ml and 80 μM for bovine trypsin; and 500 ng/ml and 240 μM for bovine chymotrypsin.

[6] = Tris buffer pH 7.4, 37° C., 100 mM NaCl, read-out: IC50

heparin
Ki [1]: < 0.025 nM

Cc1ccc(C(=O)Nc2ccc(CP(=O)(O)O)cc2)cc1NC(=O)c1cccc(NC(=O)Nc2cccc(C(=O)Nc3cc(C(=O)Nc4ccc(CP(=O)(O)O)cc4)ccc3C)c2)c1 [((((3,3′-((3,3′-(carbonylbis(azanediyl))bis(benzoyl))bis(azanediyl))bis(4-methylbenzoyl))bis(azanediyl))bis(4,1-phenylene))bis(methylene))bis(phosphonic acid)]
IC50 ([2]; Table 6, read-out: CATG IC50): 10 to 100 µM

Cc1ccc(C(=O)Nc2ccc(CP(=O)(O)O)cc2CP(=O)(O)O)cc1NC(=O)c1cccc(NC(=O)Nc2cccc(C(=O)Nc3cc(C(=O)Nc4ccc(CP(=O)(O)O)cc4CP(=O)(O)O)ccc3C)c2)c1 [Formula III, ((((3,3′-((3,3′-(carbonylbis(azanediyl))bis(benzoyl))bis(azanediyl))bis(4-methylbenzoyl))bis(azanediyl))bis(benzene-4,1,3-triyl))tetrakis(methylene))tetrakis(phosphonic acid)]
IC50 [3]: > 500 µM
IC50 [4]: > 100 µM
IC50 ([2]; Table 6, read-out: CATG IC50): 3.1 µM
HS (Hill slope) ([2]; Tris buffer pH 7.4, 37° C.): 1.1 ± 0.1
ΔY (efficacy) ([2]; Tris buffer pH 7.4, 37° C.): 87.5 ± 1.8%
IC50 [2, 6]: 3.1 µM
HS (Hill slope) [5]: 1.9 ± 0.5
ΔY (efficacy) [5]: 68.0 ± 3.7%

O=C(Nc1cc(C(=O)Nc2ccc(S(=O)(=O)O)cc2)cc(C(=O)Nc2ccc(S(=O)(=O)O)cc2S(=O)(=O)O)c1)Nc1cc(C(=O)Nc2ccc(S(=O)(=O)O)cc2)cc(C(=O)Nc2ccc(S(=O)(=O)O)cc2S(=O)(=O)O)c1 [4,4′-((3,3′-(carbonylbis(azanediyl))bis(5-((4-sulfophenyl)carbamoyl)benzoyl))bis(azanediyl))bis(benzene-1,3-disulfonic acid)]
IC50 ([2]; Table 6, read-out: CATG IC50): 0.5 to 1 µM

O=C(Nc1cccc(C(=O)Nc2cccc(C(=O)Nc3cccc(P(=O)(O)O)c3)c2)c1)Nc1cccc(C(=O)Nc2cccc(C(=O)Nc3cccc(P(=O)(O)O)c3)c2)c1 [(((3,3′-((3,3′-(carbonylbis(azanediyl))bis(benzoyl))bis(azanediyl))bis(benzoyl))bis(azanediyl))bis(3,1-phenylene))bis(phosphonic acid)]
IC50 ([2]; Table 6, read-out: CATG IC50): 1 to 10 µM

O=C(Nc1cccc(C(=O)Nc2ccc(CP(=O)(O)O)cc2CP(=O)(O)O)c1)Nc1cccc(C(=O)Nc2ccc(CP(=O)(O)O)cc2CP(=O)(O)O)c1 [((((3,3′-(carbonylbis(azanediyl))bis(4-methylbenzoyl))bis(azanediyl))bis(benzene-4,1,3-triyl))tetrakis(methylene))tetrakis(phosphonic acid)]
IC50 ([2]; Table 6, read-out: CATG IC50): 1 to 10 µM

Cc1ccc(C(=O)Nc2ccc(CP(=O)(O)O)cc2CP(=O)(O)O)cc1NC(=O)Nc1cc(C(=O)Nc2ccc(CP(=O)(O)O)cc2CP(=O)(O)O)ccc1C [((((3,3′-(carbonylbis(azanediyl))bis(4-methylbenzoyl))bis(azanediyl))bis(4,1-phenylene))bis(methylene))bis(phosphonic acid)]
IC50 ([2]; Table 6, read-out: CATG IC50): 10 to 100 µM

O=C(Nc1cc(C(=O)Nc2ccc(S(=O)(=O)O)cc2)cc(C(=O)Nc2ccc(S(=O)(=O)O)cc2)c1)Nc1cc(C(=O)Nc2ccc(S(=O)(=O)O)cc2)cc(C(=O)Nc2ccc(S(=O)(=O)O)cc2)c1 [Formula I, 4,4′,4″,4″-((5,5′-(carbonylbis(azanediyl))bis(isophthaloyl))tetrakis(azanediyl))tetrabenzenesulfonic acid]
IC50 [3]: > 100 µM
IC50 [4]: > 100 µM
IC50 ([2]; Table 6, read-out: CATG IC50): 0.83 µM
HS (Hill slope) ([2]; Tris buffer pH 7.4, 37° C.): 1.7 ± 0.4
ΔY (efficacy) ([2]; Tris buffer pH 7.4, 37° C.): 91.9 ± 6.8%
IC50 [2, 6]: 0.083 ± 0.14 µM
HS (Hill slope) [5]: 1.2 ± 0.2
IC50 [5]: 29.5 ± 4.6 µM
ΔY (efficacy) [5]: 90.9 ± 5.8%

O=C(Nc1cc(C(=O)Nc2ccccc2S(=O)(=O)O)cc(C(=O)Nc2ccccc2S(=O)(=O)O)c1)Nc1cc(C(=O)Nc2ccccc2S(=O)(=O)O)cc(C(=O)Nc2ccccc2S(=O)(=O)O)c1 [2,2′,2″,2″′-((5,5′-(carbonylbis(azanediyl))bis(isophthaloyl))tetrakis(azanediyl))tetrabenzenesulfonic acid]
IC50 ([2]; Table 6, read-out: CATG IC50): 1 to 5 µM

O=C(Nc1cc(C(=O)Nc2cc(S(=O)(=O)O)ccc2S(=O)(=O)O)cc(C(=O)Nc2cc(S(=O)(=O)O)ccc2S(=O)(=O)O)c1)Nc1cc(C(=O)Nc2cc(S(=O)(=O)O)ccc2S(=O)(=O)O)cc(C(=O)Nc2cc(S(=O)(=O)O)ccc2S(=O)(=O)O)c1 [2,2′,2″,2″′-((5,5′-(carbonylbis(azanediyl))bis(isophthaloyl))tetrakis(azanediyl))tetrakis(benzene-1,4-disulfonic acid)]
IC50 ([2]; Table 6, read-out: CATG IC50): 1 to 5 µM
